These results are taken from US5773239A, “Mannosidase inhibitors, process for their preparation and their use as therapeutic agents” (Mount Sinai Hospital Corporation., priority 1995, dated 1998).

Assay [1] deals with T1, MDAY-D2 lysosomal α-mannosidases (Mus musculus, UniProt O09159).
T1 construct: 10 μl MDAY-D2 tumor cell lysate; endogenous in cells; host or cells: MDAY-D2 tumor cells (lysate)
T1 sequence (O09159 50-1013): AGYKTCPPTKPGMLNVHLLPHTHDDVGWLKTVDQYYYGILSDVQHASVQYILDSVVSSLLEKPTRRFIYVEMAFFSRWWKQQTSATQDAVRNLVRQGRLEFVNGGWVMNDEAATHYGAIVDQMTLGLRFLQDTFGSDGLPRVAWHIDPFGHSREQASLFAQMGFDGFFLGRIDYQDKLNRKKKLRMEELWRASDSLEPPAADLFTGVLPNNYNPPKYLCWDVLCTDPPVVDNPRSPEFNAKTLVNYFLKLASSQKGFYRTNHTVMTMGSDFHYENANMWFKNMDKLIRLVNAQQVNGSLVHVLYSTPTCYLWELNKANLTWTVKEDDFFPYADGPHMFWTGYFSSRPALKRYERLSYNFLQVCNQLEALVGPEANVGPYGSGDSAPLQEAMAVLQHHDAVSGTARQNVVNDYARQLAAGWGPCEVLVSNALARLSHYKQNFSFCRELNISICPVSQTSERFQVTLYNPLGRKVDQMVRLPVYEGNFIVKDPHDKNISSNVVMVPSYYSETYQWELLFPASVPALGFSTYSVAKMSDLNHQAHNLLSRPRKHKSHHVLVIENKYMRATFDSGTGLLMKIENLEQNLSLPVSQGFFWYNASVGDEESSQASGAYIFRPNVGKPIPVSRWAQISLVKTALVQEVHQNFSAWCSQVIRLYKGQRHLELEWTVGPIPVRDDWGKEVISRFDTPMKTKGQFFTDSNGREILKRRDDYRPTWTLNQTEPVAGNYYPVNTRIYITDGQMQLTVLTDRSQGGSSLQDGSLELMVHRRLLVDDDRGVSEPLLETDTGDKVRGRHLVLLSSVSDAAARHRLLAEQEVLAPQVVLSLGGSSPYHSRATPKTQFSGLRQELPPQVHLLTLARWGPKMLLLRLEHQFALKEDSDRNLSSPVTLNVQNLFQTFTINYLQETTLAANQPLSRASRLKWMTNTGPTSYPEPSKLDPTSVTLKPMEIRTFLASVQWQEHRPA
Put plainly: Inhibition of lysosomal α-mannosidases in MDAY-D2 tumor cell lysate. The assay is classed as biochemical. Here is the method:
SW and analogues were serially diluted into a volume of 75 μl in 96 well Elisa plates followed by the addition of 37.5 μl of 100 mM sodium acetate pH 5.0 and 37.5 μl of 10 mM p-nitrophenyl α-D-mannospyranoside. Jack Bean α-mannosidase (Sigma, 38 U/ml) was diluted 1/800, 10 μl was added to each well and the plates were incubated for 20 min at 37° C. The reaction was stopped by the addition of 150 μl of 0.5M sodium carbonate and formation of p-nitrophenol was measured with a plate set at 405 nm. The effects of SW and analogues on cellular acid α-mannosidases (ie. lysosomal enzyme) were measured using the same assay where Jack Bean α-mannosidase was replaced by 10 μl MDAY-D2 tumor cell lysate (10 μg/μl of protein) prepared in 0.9% NaCl, 50 mM Tris pH 7.0, 0.5% Triton X-100 and 1.0 mM diethyl p-nitrophenyl phosphate.

The target of another assay is T2, Jack Bean α-mannosidase (Canavalia ensiformis, UniProt C0HJB3).
T2 construct: purchased Sigma
T2 sequence (C0HJB3 1-981): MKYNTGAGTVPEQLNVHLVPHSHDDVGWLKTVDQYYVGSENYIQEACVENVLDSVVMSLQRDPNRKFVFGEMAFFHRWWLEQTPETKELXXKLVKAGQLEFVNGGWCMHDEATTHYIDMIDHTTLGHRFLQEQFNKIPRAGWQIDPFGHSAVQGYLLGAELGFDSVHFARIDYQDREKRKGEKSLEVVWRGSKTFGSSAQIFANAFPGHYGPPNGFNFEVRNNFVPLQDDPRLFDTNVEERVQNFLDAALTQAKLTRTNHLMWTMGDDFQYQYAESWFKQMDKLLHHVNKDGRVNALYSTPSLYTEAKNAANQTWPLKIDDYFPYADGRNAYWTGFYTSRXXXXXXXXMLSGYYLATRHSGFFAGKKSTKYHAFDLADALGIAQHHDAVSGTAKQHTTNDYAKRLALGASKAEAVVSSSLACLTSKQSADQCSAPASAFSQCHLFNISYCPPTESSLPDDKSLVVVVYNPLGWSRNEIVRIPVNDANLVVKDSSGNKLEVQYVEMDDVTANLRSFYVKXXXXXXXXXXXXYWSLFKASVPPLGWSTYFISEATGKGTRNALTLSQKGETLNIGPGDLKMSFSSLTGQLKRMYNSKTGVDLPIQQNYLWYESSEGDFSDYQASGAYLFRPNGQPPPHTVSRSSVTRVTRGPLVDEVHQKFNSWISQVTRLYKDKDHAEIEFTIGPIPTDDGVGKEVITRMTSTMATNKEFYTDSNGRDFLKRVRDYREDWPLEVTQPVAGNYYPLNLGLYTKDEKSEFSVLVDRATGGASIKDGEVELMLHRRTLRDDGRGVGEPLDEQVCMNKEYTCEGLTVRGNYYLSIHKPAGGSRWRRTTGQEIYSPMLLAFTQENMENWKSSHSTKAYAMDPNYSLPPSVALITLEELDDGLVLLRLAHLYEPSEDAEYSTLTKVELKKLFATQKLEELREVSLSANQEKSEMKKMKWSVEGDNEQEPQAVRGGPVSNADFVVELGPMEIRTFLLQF
Put plainly: Inhibition of Jack Bean α-mannosidase. The assay is classed as biochemical. Here is the method:
Jack Bean α-mannosidase (Sigma, 38 U/ml) was diluted 1/800, 10 μl was added to each well and the plates were incubated for 20 min at 37° C. The reaction was stopped by the addition of 150 μl of 0.5M sodium carbonate and formation of p-nitrophenol was measured with a plate set at 405 nm.

[2] abbreviates: MDAY-D2 tumor cell lysate, pH 5.0, read-out: IC50 for inhibition of MDAY-D2 α-mannosidase.
[3] abbreviates: p-nitrophenyl α-D-mannopyranoside, pH 5.0, 20 min 37° C., read-out: IC50 for inhibition of J.B. α-mannosidase.

Each structure is given as a SMILES string. Read-outs that look alike come from different tables or passages of the source. Bounds are passed on as bounds.

Regarding `O=C(OC1CN2CCCC(O)C2C1O)c1ccccc1` (stereo not drawn) [2-benzoyloxy-SW], the IC50 in assay [1] (setting [2]) came out at 720 µM; at Jack Bean α-mannosidase (setting [3]) it was 350 µM.

Consider `CCCC(=O)OC1CN2CCCC(O)C2C1O` (stereo not drawn) [2-butanoyloxy-SW], for which the values for the IC50 (in assay [1] (setting [2]); against Jack Bean α-mannosidase) were 35 µM and 123 µM, respectively. In addition, on Jack Bean α-mannosidase (compared to SW), the “reduction of inhibitor activity / greater IC50 for α-mannosidase in vitro compared to SW” value came out at 300 fold.

As for `CCCCCCCC(=O)OC1CN2CCCC(O)C2C1O` (stereo not drawn) [2-octanoyloxy-SW], the IC50 worked out at 35 µM in assay [1] (setting [2]) and 123 µM at Jack Bean α-mannosidase (setting [3]). The “reduction of inhibitor activity / greater IC50 for α-mannosidase in vitro compared to SW” value at Jack Bean α-mannosidase (compared to SW) worked out at 300 fold.

`O=C(OC1CN2CCCC(O)C2C1O)c1ccc([N+](=O)[O-])cc1` (stereo not drawn) [2-p-nitrobenzoyloxy-SW]: the IC50 in assay [1] (setting [2]) was determined as 35 µM; on Jack Bean α-mannosidase (setting [3]), 123 µM. For the same compound, on Jack Bean α-mannosidase (compared to SW), the “reduction of inhibitor activity / greater IC50 for α-mannosidase in vitro compared to SW” value came out at 300 fold.

Regarding `Cc1ccc(C(=O)O[C@@H]2CN3CCC[C@@H](O)[C@@H]3[C@@H]2O)cc1` [2-toluoyloxy-SW], the IC50 in assay [1] (setting [2]) turned out to be 69 µM; at Jack Bean α-mannosidase (setting [3]), 350 µM.

Turning to `OC1CN2C[C@@H](O)[C@@H](O)[C@H]2[C@H](O)C1O` (stereo partly drawn) [6,7-dihydroxy-SW], the IC50 in assay [1] (setting [2]) stood at 10 µM; at Jack Bean α-mannosidase (setting [3]) it was 50 µM. On Jack Bean α-mannosidase (compared to SW), the “less active than SW in the Jack Bean α-mannosidase assay” value is on record as 100 times.

Regarding `CCCCCCCCCCCCCC(=O)OC1CCCN2CC(O)C(O)C12` (stereo not drawn) [8-myristinoyloxy-SW], the IC50 (in assay [1] (setting [2]); on Jack Bean α-mannosidase (setting [3])) was over 500 µM each time.

As for `CCCCCCCCCCCCCCCC(=O)OC1CCCN2CC(O)C(O)C12` (stereo not drawn) [8-palmitoyloxy-SW], the IC50 in assay [1] (setting [2]) came out at 500 µM; at Jack Bean α-mannosidase (setting [3]), 240 µM.

`O[C@H]1[C@H]2[C@H](O)CCCN2C[C@H]1O` [SW, Swainsonine, reference compound]: half-maximal inhibition in assay [1] (IC50) required 0.5 µM.
